From US12245562B2, “System for rapid, robust, and efficient in vitro mass propagation of Miscanthus x giganteus” (Delaware State University, priority 2017, dated 2025) come the findings set out here.

Counter-ions that a name gives are not always drawn.

The experiment relates to endophytic fungi. As to the kind of experiment: control of endophyte growth in in vitro shoot culture media. It counts as cell-based. Conditions: 54 μM in DSIM culture medium of Miscanthus x giganteus; compared with vancomycin hydrochloride 0, 13.5, 27, 41.5 μM and tetracycline hydrochloride 20.8 or 52 μM.

`CN[C@H](CC(C)C)C(=O)N[C@H]1C(=O)N[C@@H](CC(N)=O)C(=O)N[C@H]2C(=O)N[C@H]3C(=O)N[C@H](C(=O)N[C@H](C(=O)O)c4cc(O)cc(O)c4-c4cc3ccc4O)[C@H](O)c3ccc(c(Cl)c3)Oc3cc2cc(c3O[C@@H]2O[C@H](CO)[C@@H](O)[C@H](O)[C@H]2O[C@H]2C[C@](C)(N)[C@H](O)[C@H](C)O2)Oc2ccc(cc2Cl)[C@H]1O` [vancomycin, vancomycin hydrochloride]: the “controlling the growth of endophytic fungi in the culture media” value was “more effective”.
